Consider 39 sequences from the OligoGym collection.

For this series, the target named is SNHG14. The settings on record: ASO.

After the bases stand the sugars from the 5' end (letter, count) and the backbone: PS all phosphorothioate, else s phosphorothioate and o phosphodiester by linkage. Methylation of C is not given here. l = locked nucleic acid (LNA); d = 2'-deoxy (DNA)

For the sequence “ATCTCATGACCACCTAA (sugars l3 d10 l1 d1 l2, PS)”, the target mRNA inhibition (Human Neuronal Cell, 7.5 µM) was determined as 60%.

For “TACACTTAATTATACTTCCA (sugars lldldlddddddddddddll, PS)”, the target mRNA inhibition (Human Neuronal Cell, 7.5 µM) came out at 60%.

As to “TTATAGCCATTCTATCT (sugars ldldlddddddldddll, PS)”, the target mRNA inhibition (Human Neuronal Cell, 7.5 µM) was found to be 47%.

As for “AGCAACATTATTAACCACC (sugars ldldlddddddddlddlll, PS)”, where the note is “Human Neuronal Cell, 7.5 µM”, the target mRNA inhibition worked out at 53%.

As to “GTTTATACCCTTTCCAAT (sugars ldldldddddddddldll, PS)”, the target mRNA inhibition (Human Neuronal Cell, 7.5 µM) was found to be 57%.

Regarding “TTTATACCTTTCTTTAACCC (sugars l1 d14 l2 d1 l2, PS)”, the target mRNA inhibition (Human Neuronal Cell, 7.5 µM) was 63%.

As for CCAGCATATTATATAC (sugars l3 d10 l3, PS), the target mRNA inhibition was 27% (Human Neuronal Cell, 0.2 µM) and 23% (Human Neuronal Cell, 1 µM).

As for “AAAGATCATTCTCAACAA (sugars lddlldddddddldllll, PS)”, for the setting “Human Neuronal Cell, 7.5 µM”, the target mRNA inhibition came to 66%.

Take “TTATAGCCATTCTATCT (sugars ldlldddddddldddll, PS)”: the target mRNA inhibition (Human Neuronal Cell, 7.5 µM) was determined as 43%.

For the sequence GAATTTCAACTACTAT (sugars l2 d10 l4, PS), the target mRNA inhibition came out at 34% (Human Neuronal Cell, 0.2 µM) and 45% (Human Neuronal Cell, 1 µM).

For the sequence “CTACTAAACATACACAT (sugars l3 d11 l3, PS)”, the target mRNA inhibition (Human Neuronal Cell, 0.2 µM) came out at 34% and the target mRNA inhibition (Human Neuronal Cell, 1 µM) is 45%.

For “GCACATTCTTTCTATAC (sugars l3 d11 l3, PS)”, the target mRNA inhibition reads like this: (Human Neuronal Cell, 0.2 µM) 39%; (Human Neuronal Cell, 1 µM) 59%.

“TTTATCAATATCTTCTCAC (sugars l1 d12 l2 d1 l3, PS)”: the target mRNA inhibition (Human Neuronal Cell, 7.5 µM) came to 60%.

On to “ATAACATTACTCTTAACA (sugars l3 d12 l3, PS)”, for which the target mRNA inhibition is 22% (Human Neuronal Cell, 0.2 µM) and 40% (Human Neuronal Cell, 1 µM).

Turning to “TTTACACTTAATTATACT (sugars l2 d12 l4, PS)”, the target mRNA inhibition (Human Neuronal Cell, 0.2 µM) amounted to 7% and the target mRNA inhibition (Human Neuronal Cell, 1 µM) came to 6%.

For the sequence TACTCTGCAATACACC (sugars l2 d12 l2, PS), where the note is “Human Neuronal Cell, 7.5 µM”, the target mRNA inhibition was 59%.

Regarding “GATCATTCTCAACAATTA (sugars l2 d3 l1 d6 l6, PS)”, the target mRNA inhibition (Human Neuronal Cell, 7.5 µM) is 33%.

Turning to CACCACTGATTTCCTT (sugars l3 d10 l3, PS), the target mRNA inhibition is, setting by setting: (Human Neuronal Cell, 0.2 µM) 43%; (Human Neuronal Cell, 1 µM) 53%.

For the sequence “TGAAAATCTCAACTACCAT (sugars lddldlddddddldddlll, PS)”, the target mRNA inhibition (Human Neuronal Cell, 7.5 µM) was 19%.

Turning to “ACCACCTAAGACCTCAA (sugars l2 d11 l4, PS)”, the target mRNA inhibition by setting is: (Human Neuronal Cell, 0.2 µM) 38%; (Human Neuronal Cell, 1 µM) 60%.

For the sequence “ATCTCATGACCACCTAA (sugars ldldddddddddldlll, PS)”, the target mRNA inhibition (Human Neuronal Cell, 7.5 µM) amounted to 61%.

On to “GTTCTACTATACTTTCCT (sugars l1 d2 l1 d11 l3, PS)”, for which the target mRNA inhibition (Human Neuronal Cell, 7.5 µM) came to 62%.

As for “CTTTCCATTTATTTCCATTT (sugars ldddldldddddddddddll, PS)”, the target mRNA inhibition (Human Neuronal Cell, 7.5 µM) is 53%.

“TCTTTGACATTCCATCTC (sugars l4 d12 l2, PS)”: the target mRNA inhibition (Human Neuronal Cell, 0.2 µM) turned out to be 49% and the target mRNA inhibition (Human Neuronal Cell, 1 µM) turned out to be 56%.

For the sequence “GCAACATTATTAACCACCT (sugars lldddlddddddlddddll, PS)”, the target mRNA inhibition (Human Neuronal Cell, 7.5 µM) turned out to be 45%.

Turning to “CAACATTATTAACCACCTT (sugars l1 d2 l1 d12 l3, PS)”, the target mRNA inhibition (Human Neuronal Cell, 7.5 µM) is 53%.

Regarding “AAAATCTCAACTACCATTTT (sugars ldlddlddddddddldllll, PS)”, the target mRNA inhibition (Human Neuronal Cell, 7.5 µM) was determined as 28%.

As for “CAACATTATTAACCACCTT (sugars l2 d10 l2 d3 l2, PS)”, the target mRNA inhibition (Human Neuronal Cell, 7.5 µM) turned out to be 43%.

For the sequence CATCATATTGAACCAA (sugars l2 d10 l4, PS), the target mRNA inhibition by setting is: (Human Neuronal Cell, 0.2 µM) 52%; (Human Neuronal Cell, 1 µM) 63%.

In the case of “AAATCTCAACTACCATTTTT (sugars ldddlddddddddldlllll, PS)”, the target mRNA inhibition (Human Neuronal Cell, 7.5 µM) came to 46%.

As to “TTTATCAATATCTTCTCAC (sugars l4 d12 l3, PS)”, the target mRNA inhibition (Human Neuronal Cell, 7.5 µM) was determined as 70%.

As to ATCCTGATAATTAACT (sugars l4 d10 l2, PS), the target mRNA inhibition runs as follows: (Human Neuronal Cell, 0.2 µM) -8%; (Human Neuronal Cell, 1 µM) 5%.

With “AAATTATTTATACACCATCA (sugars l1 d12 l3 d1 l3, PS)”, the target mRNA inhibition (Human Neuronal Cell, 7.5 µM) was 40%.

On to “ATATTGATTCAATTCCC (sugars l1 d1 l2 d8 l5, PS)”, for which the target mRNA inhibition (Human Neuronal Cell, 7.5 µM) stood at 64%.

Turning to “TTTTAACCAGAGTGGCAT (sugars l4 d11 l3, PS)”, the target mRNA inhibition (Human Neuronal Cell, 7.5 µM) stood at 56%.

As to “GATCATTCTCAACAATT (sugars l1 d1 l3 d7 l5, PS)”, the target mRNA inhibition (Human Neuronal Cell, 7.5 µM) was 22%.

Regarding “CATTTCATATTACTAACT (sugars l3 d12 l3, PS)”, the target mRNA inhibition runs as follows: (Human Neuronal Cell, 0.2 µM) 10%; (Human Neuronal Cell, 1 µM) 18%.

As for “TCACTTTCCAGATATCA (sugars l2 d13 l2, PS)”, the target mRNA inhibition reads like this: (Human Neuronal Cell, 0.2 µM) 23%; (Human Neuronal Cell, 1 µM) -6%; (Human Neuronal Cell, 5 µM) 17%; (Mouse Primary Neuronal Cell, 0.005 µM) 46.6%.

As to “TTATACCTTTCTTTAACCCT (sugars ldddldldddddddldddll, PS)”, the target mRNA inhibition (Human Neuronal Cell, 7.5 µM) worked out at 62%.
